# Test results published in patent publication US11045471B2, “Melanin production inhibitor, whitening agent, fibroblast activator, collagen and/or elastin production promotor and wrinkle ameliorant” (SHOWA DENKO K.K., priority 2016, dated 2021).
# Key:
# [1] = test system: aged fibroblasts (NB1RGB cells); experiment: Collagen production in aged human fibroblasts (human collagen type I ELISA); assay type: cell-based; conditions: 100 μM, 24 hours, culture supernatant; control = 1.00
# Protocol: Aged fibroblasts were prepared. Normal human fibroblasts in the form of NB1RGB cells (purchased from the Bioresource Center of Riken Japan) were cultured to confluence in a culture flask, and after culturing for 1 hour in Dulbecco's Modified Eagle Medium (DMEM) manufactured by Sigma Corp. containing 600 μM aqueous hydrogen peroxide and 10% (w/v) fetal calf serum, the cells were washed with PBS and cultured for 24 hours after changing the medium to DMEM containing 10% (w/v) fetal calf serum. This procedure was repeated three times to obtain aged fibroblasts.
# The resulting aged fibroblasts were seeded into a plastic Petri dish at a seeding density of about 10,000 cells/cm^2 and then cultured for 24 hours in Dulbecco's Modified Eagle Medium (DMEM) manufactured by Sigma Corp. containing 10% (w/v) fetal calf serum. Subsequently, orotic acid or an orotic acid derivative dissolved in purified water (Table 4) was added to the medium at a final concentration of 100 μmol/L followed by additionally culturing for 24 hours. The medium to which orotic acid or orotic acid derivative had not been added was used as a control.
# The culture supernatant was recovered after culturing and collagen production was measured using a human collagen type I ELISA kit manufactured by Acel, Inc. 50 μL of culture supernatant of each sample were added to a microplate treated with collagen antibody provided with the kit. After shake culturing for 1 hour at room temperature, the plate was washed three times with the washing solution provided with the kit. 50 μL of horseradish peroxidase-avidin reagent provided with the kit were added thereto followed by shake culturing for 1 hour at room temperature. After again washing three times with the washing solution, 50 μL of the coloring solution provided with the kit were added followed by allowing to stand undisturbed for 15 minutes at room temperature and adding 50 μL aliquots of reaction stopping solution thereto. After mixing by shaking for 1 minute, absorbance was measured at 450 nm.
# [2] = Effect of pH on water solubility (saturated concentration by HPLC)
# Protocol: (§3) Subsequently, the pH of the remaining sample solution was adjusted using 1.0 N or 0.05 N aqueous sodium hydroxide solution, and in the case all of the sample had dissolved in the solution, sample was further added followed by stirring for 15 hours at room temperature (22° C.±2° C.) so that some of the sample was left undissolved and 1 mL of supernatant was similarly collected. Supernatant was repeatedly collected while adjusting the pH as necessary to obtain samples.
# (§4) The resulting samples were filtered with a membrane filter having a pore size of 22 μm followed by subjecting the resulting filtrate to high-performance liquid chromatography (HPLC).
# (§5) HPLC analyses were carried out using the LC Solution and PDA detector (CBM-20A) manufactured by Shimadzu Corp. and the Shodex RSpak DM-614 column at a column temperature of 40° C. and flow rate of 0.8 ml/min while using 0.02% H3PO4 for the mobile phase.
# (§6) The concentration of each sample dissolved in solution was calculated from the area of the peak that coincided with each sample in the resulting analysis data.
# [3] = test system: human three-dimensional skin equivalent; experiment: Cell survival rate in human three-dimensional skin equivalent (Cell Count Reagent SF); assay type: cell-based; conditions: for Cell Survival Rate (Relative Value): 15 days culture, control (PBS) = 1
# Protocol: (§1) The effect of inhibiting melanin production in human three-dimensional skin was examined. Human three-dimensional skin equivalent manufactured by MatTek Corp. was purchased and pre-cultured for 1 hour with the dedicated culture medium, EPI-100LLMM, available from the same manufacturer.
# (§2) Following pre-culturing, orotic acid-glutamic acid dissolved in phosphate-buffered saline (PBS) was added to the skin surface at a final concentration of 0.2% (w/v), 0.5% (w/v) or 1.0% (w/v), or orotic acid was added to the skin surface at a final concentration of 0.5% (w/v), followed by culturing for 15 days. The cell survival rates of the human three-dimensional skin equivalent following addition of orotic acid or orotic acid-glutamic acid were measured using the Cell Count Reagent SF manufactured by Nacalai-Tesque, Inc. After culturing, the skin was transferred to medium containing 1% Cell Count Reagent SF and after culturing for 3 hours, absorbance was measured at […]. Cell survival rates were calculated as the measured value based on a value of 1 for the control.
# [4] = test system: human three-dimensional skin equivalent; experiment: Melanin production inhibition in human three-dimensional skin equivalent; assay type: cell-based; conditions: for Melanin Production Rate (relative value): 15 days culture, per cell, control (PBS) = 1
# Protocol: as §1, §2
# After measuring cell survival rates in Experimental Example 2, the skin was thoroughly rinsed with PBS followed by sampling the skin and recovering in a 1.5 mL microtube. 150 μL of a dissolving solution containing sodium dodecyl sulfate (1% (w/v)), 0.05 mM ethylenediaminetetraacetate and 10 mM Tris-HCl (pH 6.8) were added thereto. After stirring, 3 μL of 5 mg/mL protease K were added followed by dissolving for 6 hours at 45° C., adding 25 μL of 500 mM […] and 5 μL of 30% aqueous hydrogen peroxide and further treating for 30 minutes at 80° C. After allowing the sample to cool to room temperature, 20 μL of a 2:1 solution of chloroform and methanol were added to the sample followed by centrifuging for 10 minutes at the highest rotating speed of the centrifuge. 80 μL aliquots of the sample supernatant were recovered onto microplates followed by measurement of absorbance at 405 nm. Melanin production rate was determined by calculating the extinction coefficient of each sample based on a value of 1 for the control and dividing that value by the cell survival rate determined in Example 2 to calculate the melanin production rate per cell.
# [5] = test system: Normal human fibroblasts (NB1RGB cells); experiment: Elastin production in normal human fibroblasts (elastin assay kit); assay type: cell-based; conditions: 48 hours, control = 1.00
# Protocol: Normal human fibroblasts in the form of NB1RGB cells (purchased from the Bioresource Center of Riken Japan) were seeded at a seeding density of about 10,000 cells/cm^2 and cultured for 24 hours in DMEM medium containing 10% (w/v) fetal calf serum. An orotic acid derivative according to the present invention dissolved in pure water to a final concentration of 0 μM (control), 0.1 μM, 1 μM, 10 μM or 100 μM or orotic acid dissolved in purified water to a final concentration of 100 μM was added to DMEM medium containing 10% (w/v) fetal calf serum followed by culturing for 48 hours. The cells were subsequently recovered, the elastin was extracted with an elastin assay kit manufactured by Biocolor Ltd., and absorbance of the extract was measured at a wavelength of 513 nm.
# [6] = cited from earlier work
# [7] = physchem; conditions: 22 °C, thermodynamic from solid
# Protocol: as §3, §4, §5, §6
# [8] = 22 °C, pH 4, aqueous buffer, thermodynamic from solid
# [9] = 22 °C, pH 2.3, water, thermodynamic from solid
smiles,measurement,setting,value
O=C(O)CNC(=O)c1cc(=O)[nH]c(=O)[nH]1 [Orotic acid-Gly],Collagen Production (relative value),[1],1.23
same,solubility thermodynamic at 15 h,"[2]; 22 °C, pH 2.8, aqueous buffer, thermodynamic from solid",1.1 mg/mL
same,solubility thermodynamic at 15 h,"[2]; 22 °C, pH 3.6, aqueous buffer, thermodynamic from solid",3.2 mg/mL
same,solubility thermodynamic at 15 h,[2]; [8],5.5 mg/mL
same,solubility thermodynamic at 15 h,"[2]; 22 °C, pH 4.5, aqueous buffer, thermodynamic from solid",16.6 mg/mL
same,solubility thermodynamic at 15 h,"[2]; 22 °C, pH 5.1, aqueous buffer, thermodynamic from solid",38.3 mg/mL
same,solubility thermodynamic at 15 h,"[2]; 22 °C, pH 6.1, aqueous buffer, thermodynamic from solid",66 mg/mL
"O=C(O)c1cc(=O)[nH]c(=O)[nH]1 [Orotic acid, reference compound]",Cell Survival Rate (Relative Value),[3]; 0.5% (w/v) on skin surface,1.1
same,Melanin Production Rate (relative value),[4]; 0.5% (w/v),0.70
same,"Effect of inhibiting melanin production, statement in words",[4]; human three-dimensional skin equivalent,superior effect of inhibiting melanin production
same,Collagen Production (relative value),[1],1.14
same,Elastin Production (relative value),[5]; 100 μM,1.12
same,Solubility in alcohol,[6]; alcohol such as ethanol,practically insoluble
same,Solubility in water,[6]; water,extremely insoluble
same,Saturated concentration,"[2]; pH 2.3, room temperature (22° C.±2° C.)",0.08 % (w/v)
same,Saturated concentration,"[2]; pH 4.6, room temperature (22° C.±2° C.)",0.27 % (w/v)
same,Saturated concentration,"[2]; pH 4.8, room temperature (22° C.±2° C.)",0.26 % (w/v)
same,Saturated concentration,"[2]; pH 5.8, room temperature (22° C.±2° C.)",0.19 % (w/v)
same,Saturated concentration,"[2]; pH 7.1, room temperature (22° C.±2° C.)",0.16 % (w/v)
O=C(N[C@@H](Cc1c[nH]cn1)C(=O)O)c1cc(=O)[nH]c(=O)[nH]1 [Orotic acid-His],Collagen Production (relative value),[1],1.23
same,solubility thermodynamic at 15 h,"[7]; pH 4.9, aqueous buffer",2.2 mg/mL
same,solubility thermodynamic at 15 h,"[7]; pH 7.2, aqueous buffer",12.5 mg/mL
O=C(O)C[C@H](NC(=O)c1cc(=O)[nH]c(=O)[nH]1)C(=O)O [Orotic acid-Asp],solubility thermodynamic at 15 h,[2]; [9],9.5 mg/mL
same,solubility thermodynamic at 15 h,[2]; [8],98.2 mg/mL
same,solubility at 15 h,"[2]; 22 °C, pH 4.2, aqueous buffer, thermodynamic from solid",> 111 mg/mL
O=C(O)CC[C@H](NC(=O)c1cc(=O)[nH]c(=O)[nH]1)C(=O)O [Orotic acid-Glu],Cell Survival Rate (Relative Value),[3]; 0.2% (w/v) on skin surface,1.4
same,Cell Survival Rate (Relative Value),[3]; 0.5% (w/v) on skin surface,1.2
same,Cell Survival Rate (Relative Value),[3]; 1% (w/v) on skin surface,0.9
same,"Cell survival rate, statement in words","[3]; at the test concentrations 0.2%, 0.5%, 1.0% (w/v)",no decreases in cell survival rates observed
same,Melanin Production Rate (relative value),[4]; 0.2% (w/v),0.61
same,Melanin Production Rate (relative value),[4]; 0.5% (w/v),0.71
same,Melanin Production Rate (relative value),[4]; 1% (w/v),0.50
same,Collagen Production (relative value),[1],1.53
same,Elastin Production (relative value),[5]; 0.1 μM,1.20
same,Elastin Production (relative value),[5]; 1 μM,1.35
same,Elastin Production (relative value),[5]; 10 μM,1.24
same,Elastin Production (relative value),[5]; 100 μM,1.24
same,solubility thermodynamic at 15 h,[2]; [9],13 mg/mL
same,solubility thermodynamic at 15 h,"[2]; 22 °C, pH 5.2, aqueous buffer, thermodynamic from solid",54.3 mg/mL
